SMILES strings stand for the structures. Active and inactive are the calls of the source. The calls are words filed in the database; no cut-off is given here. Where a SMILES comes first, the peptide text is derived from it. Bridges are numbered along the chain shown (N, C = ends).

The nature of assay [1]: Binding affinity to thioflavin S at compound:AcPHF6 ratio of 1:1 incubated for 120 mins by fluorescence assay.
Assay [2] is described as follows: Inhibition of TAU derived synthetic hexapeptide AcPHF6 fibril formation at compound:AcPHF6 ratio of 1:1 to 1:64 incubated for 60 mins by thioflavin S fluorescence assay.
Assay [3] is described as follows: Binding affinity to thioflavin S at compound:AcPHF6 ratio of 1:1 to 1:64 incubated for 120 mins by fluorescence assay.
A short description of assay [4]: Inhibition of TAU derived synthetic hexapeptide AcPHF6 fibril formation incubated for 120 mins by thioflavin S fluorescence assay.

For the compound `CC[C@H](C)[C@@H]1NC(=O)[C@H](CCC(N)=O)NC(=O)[C@H](C(C)C)NC(=O)CNC(=O)[C@H](CC(=O)O)NC(=O)[C@@H]2CCCN2C(=O)[C@H](C(C)C)NC(=O)[C@H](C)NC(=O)[C@H](Cc2ccccc2)NC(=O)[C@@H]2CSSC[C@H](NC1=O)C(=O)N[C@@H](Cc1ccc(O)cc1)C(=O)N[C@@H](CCCCN)C(=O)N[C@@H](CO)C(=O)N[C@@H]([C@@H](C)CC)C(=O)N1CCC[C@H]1C(=O)N1CCC[C@H]1C(=O)N[C@@H]([C@@H](C)CC)C(=O)N2` (cyclo(AVPDGVQICYKSIPPICF); disulfide 9-17), the outcome in assay [1] was Active. Also, the inhibition result in assay [2] is “Active”.

As to `CC[C@H](C)[C@@H]1NC(=O)[C@@H]2CCCN2C(=O)[C@@H]2CCCN2C(=O)[C@H]([C@@H](C)CC)NC(=O)[C@H](CO)NC(=O)[C@H](CCCCN)NC(=O)[C@H]([C@@H](C)O)NC(=O)[C@@H]2CSSC[C@H](NC1=O)C(=O)N[C@@H](Cc1ccccc1)C(=O)N1CCC[C@H]1C(=O)N[C@@H](CC(=O)O)C(=O)NCC(=O)N[C@@H](CCCNC(=N)N)C(=O)N2`, the result in assay [3] was inactive. Besides, the inhibition result in assay [2] is “Active”. The inhibition entry in assay [4] is “Dose-dependent effect”.
